# In patent US20230346824A1, “MEANS AND METHODS OF PREVENTING AND TREATING INFECTIONS” (SolyPlus GmbH, priority 2020, published 2023):
# Tested on: S protein monomer
# Experiment: MST binding to RED labelled S protein monomer in 50% negative human serum (FIGS. 4, 7, 8, 10, 12)
# Set-up: species or system SARS-CoV-2
# Settings: 20 nM S protein monomer, ligand 0.5 µM - 0.2 nM arbitrary units, PBS 0.05% Tween 20, 50% negative human serum
row,Structure (SMILES),binding to S protein monomer detected by MST
1,"Cn1c(=O)c2c(ncn2C)n(C)c1=O [Coffein, caffeine]",A binding could be detected
2,"O=C[C@H](O)[C@@H](O)[C@@H](O)CO [L+Arabinose, L-Arabinose]",No binding could be detected
3,"O=C[C@H](O)[C@@H](O)[C@@H](O)[C@H](O)CO [D+Galactose, D-Galactose]",A binding could be detected
